Legend:
[1] = system: Ba/F3-FL-EGFR(L858R/T790M/C797S) phosphorylation; experiment: Inhibition of EGFR phosphorylation in cells, Western Blot; assay type: cell-based; conditions: p-EGFR, 4 h incubation, read-out: Cell half-maximal inhibition concentration IC50 Ba/F3-FL-EGFR(L858R/T790M/C797S)
Text: (§1) Autophosphorylation of EGFR can activate its intracellular kinase pathway. In this assay, EGFR phosphorylation was quantified in order to detect the inhibitory effect of compounds on Ba/F3-FL-EGFR(L858R/T790M/C797S) and Ba/F3-FL-EGFR (del19-E746-A750/T790M/C797S) phosphorylation.
(§2) The cells in the logarithmic growth phase were taken and counted with a cell counter. The cell viability rate was required to be >90%. Cells were inoculated into a sterile 6-well plate with 2×10^6 cells per well, replenished with 1640 complete medium to 1998 μL, and the 6-well plate was incubated in a constant temperature incubator at 37° C. and 5% CO2.
(§3) The 6-well plate was taken out, and the cells were normal under microscope. In an ultra-clean bench, 2 μL of each of the prepared gradient diluted 1000× stock solution was added to the 6-well plate inoculated with cells, and the 6-well plate was gently shaken to distribute the compounds evenly.
(§4) The 6-well plate was incubated statically in a constant temperature incubator at 37° C., 5% CO2 for 4 h;
(§5) After the cells were cultured statically for 4 hours, the culture medium was collected, and centrifuged at 8000 rpm for 3 minutes. The cells were collected in a 1.5 mL EP tube. The supernatant was discarded, and the total protein was extracted;
(§6) Cells from each group were collected into 1.5 ml EP tubes and a certain volume of Lysis Buffer (RIPA:protease/phosphatase inhibitor=100:1) was added (˜66 μL per 2×10^6 cells, depending on the cell amount). After adding Lysis Buffer, the EP tubes were placed on ice quickly and vortexed using a vortexer to fully lyse the cells. Be careful not to vortex for too long, and quickly place the sample tube on ice to lysis, shaking every 10 min for three times. At the end of the lysis time, the EP tubes were centrifuged at 12000 rpm for 10 min in a pre-cooled centrifuge at 4° C. After centrifugation, the supernatant was transferred to new 1.5 ml EP tubes which were labeled.
(§7) Using the BCA Protein Concentration Assay Kit, protein quantification of the sample lysis supernatant was performed according to the kit instructions. After the protein concentration was determined, the lysis supernatant with the lowest concentration was used as the reference, and the rest of the lysis supernatants were diluted to that concentration using Lysis Buffer in a volume calculated according to the BCA standard curve. To the diluted lysis supernatant, the corresponding volume of 5× loading Buffer was added. The diluted solution was heated in a metal bath at 95° C. for 10 min, then placed on ice to be cooled, and stored in a refrigerator at −20° C.
(§8) The glass plates used for making glue were cleaned, and two glass plates were aligned the bottoms, put into the bracket, and fixed with clips. The separation gel according to the 10% separation gel formula was prepared, mixed well and then added to the glass plate. The addition was stopped until the separation gel reached about ¾ of the glass plate and the glue was pressed with 75% ethanol. After 90 minutes, the separation gel was solidified. The 75% ethanol was poured out. Filter paper was used to absorb the remaining ethanol solution on the glass plate. A 5% stacking gel was prepared, mixed evenly and added to the glass plate. Then a spiking comb was inserted. After 60 minutes, the glue was made.
(§9) The gel plate was fixed in an electrophoresis tank, and the inner tank was filled with 1× electrophoresis solution, while in the outer tank the electrophoresis solution was over the metal wire. The spiking comb was removed, the protein samples of Ba/F3-FL-EGFR (L858R/T790M/C797S) and Ba/F3-FL-EGFR (del19-E746-A750/T790M/C797S) cells were sampled 25 μg, and Protein Ladder was then added. Turning on the power supply, electrophoresis with a constant voltage of 70 V lasted for 30 min, electrophoresis was continued at constant voltage 86 V for 1 h 20 min until the bromophenol blue indicator band reached the bottom and electrophoresis was stopped. […]

[2] = system: Ba/F3-FL-EGFR (del19-E746-A750/T790M/C797S) phosphorylation; experiment: as above; assay type: cell-based; conditions: p-EGFR, 4 h incubation, read-out: Cell half-maximal inhibition concentration IC50 Ba/F3-FL-EGFR (del19-E746-A750/T790M/C797S)
Text: as §1, §2, §3, §4, §5, §6, §7, §8, §9

Row | SMILES | IC50 [1] [nM] | IC50 [2] [nM]
1 | Cc1cc2cc(n1)-c1cnn(C)c1OC[C@H]1CC[C@H](C1)CN1/C(=N/C2=O)Nc2ccc(N=S(C)(C)=O)cc21 (single isomer, unassigned) [WX-027A] | 2.1 | 1.9
2 | Cc1cc2cc(n1)-c1cnn(C)c1OCCC[C@@H](C)CN1/C(=N/C2=O)Nc2ccc(N=S(C)(C)=O)cc21 [WX-006] | 3.4 | 0.6
3 | Cc1cc2cc(n1)-c1cnn(C)c1OCCC[C@@H](C)CN1/C(=N/C2=O)Nc2ccc(N=S3(=O)CCCC3)cc21 [WX-010 (trifluoroacetate)] | 2.3 | 0.8
4 | Cc1cc2cc(n1)-c1cnn(C)c1OCCC[C@@H](C)CN1/C(=N/C2=O)Nc2ccc(N=S3(=O)CCOCC3)cc21 [WX-013] | 2.9 | 1.3
